These are literature values, as cited in patent US20110178470A1, “PHARMACEUTICAL COMPOSITIONS COMPRISING BORONIC ACID COMPOUNDS” (DR. REDDY'S LABORATORIES LTD., priority 2008, published 2011).

The conditions of this data set: as the monomeric boronic acid; pH range of 2 to 6.5.

As to `CC(C)C[C@H](NC(=O)[C@H](Cc1ccccc1)NC(=O)c1cnccn1)B(O)O` [bortezomib, [(1R)-3-methyl-1-[[(2S)-1-oxo-3-phenyl-2-[(pyrazinylcarbonyl)amino]propyl]amino]butyl]boronic acid], the solubility in water was 3300 to 3800 µg/mL.
